One molecule from US20220315895A1, “METHODS OF MAKING OLIGOPOTENT AND UNIPOTENT PRECURSORS” (Transfusion Health, LLC, priority 2019, published 2022) can be followed below.

The subject of experiment [1] is CD34+ cells from cord blood. Put plainly: HSC Expansion Culture, 14 and 21 days (Example 41). The format is cell-based, human. The method, then: CD34+ cells from cord blood were purchased from STEMCELL Technologies.
Primary human CD34+ cells were isolated by the supplier from cord blood samples using positive immunomagnetic separation techniques. Cells from two separate samples of cord blood were thawed, gradually brought to room temperature, then washed.
For both samples, cells were primed with an overnight culture in StemSpan with 100 ng/ml each of FLT3L, TPO, SCF, and IL-6. Eighteen hours later (day 1), cells were counted and immunophenotyped (flow cytometry on an Invitrogen Attune N×T cytometer).
The remainder of cells from both samples were placed into “HSC Expansion Culture” for either 14 days (“14-day expansion”) or 21 days (“21-day expansion”). Numbers of cells placed into HSC Expansion Culture were quantified for “Fold Expansion” calculations described below. […]
During Expansion Culture, portions of cells were passaged to one or more larger flasks (75 cm^2 or 225 cm^2) if density of cells was greater than ≥1e5 cells/ml. […] Numbers of cells seeded were recorded for “Fold Expansion” calculations, described below.
Following 21 days in Expansion Culture, a sample was taken from the 21-day expansion flask for counting and analysis of phenotypes (flow cytometry on an Invitrogen Attune N×T cytometer). […] CD34 purity was verified by flow cytometry and counts were recorded for calculation of Per-Assayed-CD34+ Cell Output, described below. […]

For experiment [2], the system named is CD3+ and CD3+/CD8+ T cells. Put plainly: T-cell Maturation and CD8 Maturation Culture (Example 41). The format is cell-based, human. The procedure:
Following 14 days in Lymphoid Progenitor Differentiation Cultures, cells were placed into T- and NK-cell Maturation Cultures.
For T-cell Maturation Cultures, 24-well non-TC-treated plates were coated with StemSpan Lymphoid Differentiation Coating Material (STEMCELL Technologies) according to the manufacturer's instructions. Immediately prior to initiation of T-cell Maturation Culture, wells were washed with PBS. Cells from L Diff Cultures were plated at 50,000 cells/well in 500 μl of T Cell Progenitor Maturation Medium, comprising StemSpan SFEM II medium with StemSpan T Cell Progenitor Maturation Supplement.
Following 4 days of culture, NK- and T-cell Maturation Cultures' medias were replenished by adding an equal volume of the same culture media added on day 14. At days 21 and 25 of NK- or T-cell Maturation Cultures, half-media changes were performed by removing half of the total volume of media without disturbing cells and adding media freshly prepared as on day 14.
Following 7 and 14 days in NK- and T-cell Maturation Culture (21 and 28 days from initiation of Lymphoid Differentiation Culture, respectively), cells were stained with antibodies to CD56, CD3, CD161, CD94, and CD16 and analyzed via flow cytometry to quantify T and NK lineage phenotypes.
T-cell Maturation Cultures were continued for an additional 14 days, plated at 50,000-75,000 cells/well into 24-well non-TC-treated plates freshly coated with Lymphoid Differentiation Coating Material as above. Cultures were continued for this 14 day-period with half-media changes every 3-4 days.
Following a total of 42 days in Lymphoid Progenitor Differentiation and T-cell Maturation cultures, T cells from 14-day+Formula I-expanded L Diff Culture and 14-day DMSO-expanded L Diff Culture were placed into CD8 Maturation Culture as follows: A 24-well plate was coated with Lymphocyte Differentiation Coating Medium as above. […] Following 6 days in this maturation medium, cells were analyzed for mature T cell phenotypes by staining for CD3, CD8a, CD4, CD56 and performing flow cytometry on an Attune N×T flow cytometer. […]

[3] abbreviates: CD8, Lymphoid Diff day 49, +Formula I-expanded CD34+ cells.

Take `CC(C)(C)C(=O)Nc1ccc2c(c1)C(O)c1ccccc1-2` (centres unmarked) [Compound 1.010]: the “fold expansion of CD34+ cells” value in experiment [1] (+Formula I Condition (Compound 1.010 8 μM), 14 days) is given as 35 fold. In addition, the “fold expansion of CD34+ cells” value in experiment [1] (+Formula I Condition, 21-day expansion) is 245 fold. Moreover, in experiment [2] (setting [3]), the “% Mature cells: CD4+/CD8α+ of Live/CD3+/CD56−” value was determined as 0.5% and the “% Mature cells: CD4−/CD8α+ of Live/CD3+/CD56−” value came out at 95%. In addition, the “CD8a+ cells, of CD3+ cells” value in experiment [2] (CD34+ cells first expanded for 14 days in +Formula I conditions) is given as 95%.
